Data: PMC6104039 (Nature Communications, 2018)
“And” between values parts separate entries of the source, which are not always exact repeats. Identical values can stand only once.

Tested on: SkM
Assay: Lipidomic profiling of skeletal muscle (quadriceps) of mice on chow or HFD
Type: in vivo
Description: Male C57BL6/J mice were obtained from the Animal Resources Centre in Perth (WA, Australia). […] Treatment was commenced at the same time as mice were randomised to dietary groups. The experiments were approved by the UNSW animal care and ethics committee (ACEC 15/48B), and followed guidelines issued by the National Health and Medical Research Council of Australia.
Lipids were extracted from frozen tissue samples or cells using a two-phase procedure with methyl-tert-butyl ether (MTBE)/methanol/water (10:3:2.5, v/v/v)[67]. Frozen tissue samples (~20 mg) were homogenized in 0.2 mL methanol containing 0.01% butylated hydroxytoluene (BHT), using a Precellys 24 homogenizer and Cryolys cooling unit (Bertin Technologies) with CK14 (1.4-mm ceramic) beads. The homogenates were spiked with an internal standard mixture comprising 5 nmole 19:0/19:0 phosphatidylcholine and 2 nmole each of 17:0/17:0 phosphatidylethanolamine, 17:0/17:0 phosphatidylserine, 17:0/17:0 d5-diacylglycerol, 17:0/17:0 phosphatidylglycerol, 14:0/14:0/14:0/14:0 cardiolipin, 18:1/12:0 SM, 18:1/17:0 ceramide, 18:1/12:0 glucosylceramide, 18:1/12:0 lactosylceramide, 18:1/12:0 sulfatide (all from Avanti Polar Lipids, USA), and 17:0/17:0/17:0 TAG (Cayman Chemical, USA), then transferred to 10 mL screw cap glass tubes. The homogenization tubes containing beads were then washed with another 0.3 mL methanol, and this wash was combined with the first methanol extract, after which 1.7 mL MTBE was added and the samples were sonicated in an ice-cold sonicating water bath (Thermoline Scientific, Australia) for 30 min. Phase separation was induced by addition of 417 µL of mass spectrometry-grade water followed by vortexing and centrifugation at 1000 × g for 10 min. The upper organic phase was collected into 5 mL glass tubes. The lower phase was re-extracted by adding 1 mL MTBE, 300 μL methanol, and 250 μL water. The organic phases were combined in the 5 mL glass tubes and dried under vacuum in a Savant SC210 SpeedVac (Thermo Scientific), then reconstituted in 500 μL methanol and stored at −20 °C until analysis.
Lipidomic profiling was performed on a QExactive Plus mass spectrometer with heated electrospray ionization (HESI) probe and a Dionex UltiMate 2000 LC pump (Thermo Fisher Scientific). Extracts were resolved on a 2.1 × 100 mm Waters Acquity C18 UPLC column (1.7 µm […]), using a binary gradient in which mobile phase A consisted of acetonitrile:water (60:40), 10 mM ammonium formate, 0.1% formic acid; and mobile phase B was isopropanol:acetonitrile (90:10), 10 mM ammonium formate, 0.1% formic acid[68]. The flow rate was 260 µL/min and column oven 55 °C. Data was acquired in full scan/data-dependent MS^2 mode (full scan resolution 70,000 FWHM, scan range 400–1200 m/z). The ten most abundant ions in each cycle were subjected to MS^2 using an isolation window of 1.4 m/z, collision energy 30 eV, resolution 17,500, maximum integration time 110 ms and dynamic exclusion window 10 s. An exclusion list of background ions was used based on a solvent blank. LipidSearch v4.1.30 software (ThermoFisher Scientific) was used for chromatogram alignment, peak identification and integration. Each lipid peak was manually verified for column elution time and characteristic fragment ions. Data were then exported to an Excel spreadsheet for normalisation of each lipid to its class-specific internal standard, and lipid concentrations were calculated relative to the internal standard.
Data were log transformed, then subjected to two-tailed t-tests adjusted for multiple comparisons using GraphPad PRISM (Benjamini, Krieger and Yekutieli correction, Q = 1%).

[1] = 5 mg/kg daily, 4–6 weeks, HFD group

## C[C@@](N)(CO)CCc1ccc(OCc2ccc(Cl)c(Cl)c2)cc1 [P053, (S)-2-amino-4-(4-(3,4-dichlorobenzyloxy)phenyl)-2-methylbutan-1-ol]
5 mg/kg daily, 4–6 weeks
  HexCer content of SkM: not significantly affected
  levels of common phospholipids in SkM: did not affect
  total ceramide content of SkM: reduced total ceramide content
[1]
  42:2 SM in SkM: significantly increased
  very long chain ceramides (C22:0, C24:0 and C24:1) in SkM: significantly increased
5 mg/kg daily, 4–6 weeks, both diets, not statistically significant
  mean levels of 36:1 SM in SkM, lower than vehicle: 13%
Chow + P053, individual mice
  Ceramide 18:1/16:0 content of skeletal muscle: 3.10 and 1.77 (2×) and 2.74 and 1.05 and 2.59 and 2.04 and 2.73 and 4.80 and 1.58 and 1.47 and 1.10 and 1.69 and 1.86 and 1.78 and 2.17 and 1.48 (2×)
  Ceramide 18:1/18:0 content of skeletal muscle: 20.71 and 17.58 and 23.00 and 14.06 and 16.77 and 18.40 (2×) and 20.26 and 15.08 and 13.86 and 23.04 and 23.06 and 23.01 and 18.78 and 15.44 and 14.24 and 19.21 and 15.87
  Ceramide 18:1/20:0 content of skeletal muscle: 0.50 and 0.38 (2×) and 0.51 and 0.33 and 0.44 and 0.57 and 0.41 and 0.18 (2×) and 0.21 and 0.17 (2×) and 0.22 and 0.15 (2×) and 0.13 and 0.20
  Ceramide 18:1/22:0 content of skeletal muscle: 1.58 and 1.18 and 1.27 and 1.31 and 1.33 and 1.24 and 2.02 and 1.70 and 0.82 and 0.97 and 0.93 and 1.37 and 0.85 and 1.53 and 1.04 (2×) and 0.62 and 0.77
  Ceramide 18:1/24:0 content of skeletal muscle: 2.05 and 1.75 and 2.39 and 1.84 (2×) and 2.22 and 3.08 and 3.05 and 1.41 and 1.81 and 2.08 and 2.47 and 0.10 and 2.48 and 0.14 and 1.18 and 1.87 and 1.61
  Ceramide 18:1/24:1 content of skeletal muscle: 5.19 and 4.17 and 5.42 and 4.06 and 4.86 and 4.12 and 6.25 and 6.63 and 2.73 and 3.16 and 3.08 and 4.65 and 3.22 and 4.69 and 3.70 and 2.46 and 3.14 and 2.75
  Ceramide 18:2/18:0 content of skeletal muscle: 1.63 and 1.36 and 1.77 and 0.81 and 1.04 and 1.34 and 1.47 (2×) and 1.60 and 2.11 and 1.87 and 1.91 and 1.85 and 1.31 and 1.49 and 1.75 and 1.71 and 1.50
  SM 34:1 content of skeletal muscle: 155.00 and 75.29 and 64.44 and 51.84 and 157.48 and 87.87 and 37.17 and 61.63 and 56.39 and 26.64 and 21.61 and 27.95 and 26.10 and 29.76 and 25.67 and 36.05 and 29.79 and 28.45
  SM 36:1 content of skeletal muscle: 408.35 and 391.75 and 244.36 and 209.60 and 257.92 and 303.73 and 198.39 and 281.99 and 211.03 and 160.27 and 169.50 and 130.04 and 157.61 and 130.34 and 143.84 and 173.19 and 158.59 and 154.00
  SM 36:2 content of skeletal muscle: 5.68 and 10.86 and 10.80 and 2.69 and 6.07 and 9.49 and 5.32 and 8.00 and 6.39 and 4.78 and 4.58 and 3.87 and 4.48 and 3.64 and 4.59 and 6.14 and 4.52 and 4.32
  SM 38:1 content of skeletal muscle: 13.22 and 12.48 and 5.72 and 6.13 and 5.91 and 5.41 and 17.63 and 9.33 and 1.53 and 1.84 and 1.68 and 1.39 and 1.34 and 1.51 and 1.41 and 1.37 and 2.56 and 1.65
  SM 40:1 content of skeletal muscle: 28.35 and 29.55 and 12.61 and 11.97 and 14.98 and 15.26 and 24.07 and 17.95 and 17.87 and 21.14 and 17.97 and 25.28 and 16.09 and 25.29 and 21.99 and 14.69 and 26.69 and 18.42
  SM 40:2 content of skeletal muscle: 2.18 and 3.25 and 1.19 and 1.06 and 1.18 and 0.98 and 4.74 and 3.00 and 1.89 and 2.04 and 2.38 and 2.68 and 1.85 and 2.58 and 2.52 and 1.52 and 2.57 and 1.93
  SM 42:1 content of skeletal muscle: 26.96 and 32.88 and 11.84 and 14.58 and 16.55 and 13.22 and 32.58 and 20.65 and 17.62 and 18.82 and 16.13 and 27.77 and 16.56 and 31.99 and 21.25 and 13.55 and 28.43 and 16.15
  SM 42:2 content of skeletal muscle: 78.98 and 85.87 and 38.45 and 39.28 and 45.06 and 42.02 and 67.24 and 61.76 and 56.89 and 58.53 and 52.21 and 80.69 and 50.18 and 74.84 and 63.29 and 51.49 and 78.04 and 54.99
  SM 42:3 content of skeletal muscle: 11.26 and 12.44 and 7.12 and 5.50 and 7.16 and 6.69 and 11.58 and 9.28 and 9.04 and 9.58 and 8.81 and 14.49 and 7.86 and 11.12 and 9.61 and 8.30 and 13.11 and 8.65
HFD + P053
  total SkM TAG content, lower than HFD vehicle group: 60%
HFD + P053, individual mice
  Ceramide 18:1/16:0 content of skeletal muscle: 1.10 and 2.17 and 1.83 and 1.12 (2×) and 2.90 and 1.46 and 0.87 (2×) and 1.73 and 3.22 and 1.34 and 1.89 and 1.27 and 1.41 and 1.14 and 1.04 and 0.99 and 1.01
  Ceramide 18:1/18:0 content of skeletal muscle: 14.13 and 13.78 and 15.90 and 15.58 and 21.96 and 19.36 and 13.96 and 15.88 and 24.31 and 19.32 and 17.61 and 21.70 and 17.37 and 21.41 and 15.56 and 12.14 and 18.07 and 11.49 and 13.22
  Ceramide 18:1/20:0 content of skeletal muscle: 0.45 (2×) and 0.54 and 0.57 and 0.65 and 0.48 and 0.42 and 0.40 and 0.77 and 0.10 (2×) and 0.08 (2×) and 0.06 (2×) and 0.07 (2×) and 0.05 and 0.09
  Ceramide 18:1/22:0 content of skeletal muscle: 1.69 and 1.43 and 1.68 and 1.85 and 2.17 and 1.53 and 1.50 and 1.46 and 2.26 and 1.14 and 1.16 and 1.47 and 1.36 and 1.00 and 1.18 and 0.98 and 1.30 and 1.04 and 1.72
  Ceramide 18:1/24:0 content of skeletal muscle: 1.53 (2×) and 1.50 and 1.85 and 1.78 and 2.27 and 1.57 (2×) and 1.81 and 2.48 and 1.41 and 1.31 and 1.65 and 1.24 and 1.83 and 1.21 and 1.67 and 1.20 and 1.73
  Ceramide 18:1/24:1 content of skeletal muscle: 4.07 and 3.37 and 3.91 and 3.88 and 4.88 and 3.55 (2×) and 3.81 and 5.60 and 2.28 and 2.44 and 3.08 and 2.82 and 2.33 and 2.75 and 2.49 and 2.86 and 2.35 and 3.30
  Ceramide 18:2/18:0 content of skeletal muscle: 0.85 (2×) and 1.05 and 0.95 and 1.06 and 1.53 and 1.34 and 0.98 and 1.27 and 2.27 and 1.58 and 1.22 and 1.29 (2×) and 0.73 and 0.92 and 1.11 and 0.97 and 0.74
  SM 34:1 content of skeletal muscle: 56.88 and 99.05 and 291.61 and 79.88 and 179.42 and 129.66 and 30.83 and 225.53 and 214.19 and 48.41 and 47.17 and 48.35 and 37.16 and 22.64 and 38.24 and 42.99 and 33.41 and 36.54 and 32.79
